Measurements as given in ChEMBL document CHEMBL5113471 (Eur J Med Chem, 2022).
Each block holds one compound with its values, some of them ahead of it. Active and inactive are the calls of the source. No cut-off for these calls is given here.

Key:
[1] = molecular target: Poly [ADP-ribose] polymerase 1 (Homo sapiens, UniProt P09874); assay: Inhibition of human recombinant PARP1 in presence of NAD+ by ELISA
[2] = Antiproliferative activity against BRCA1-deficient human UWB1289 cells assessed as inhibition of cell proliferation incubated for 7 days by SRB assay; assay type: functional, cell-based; settings: UWB1289, 168 h
[3] = Antiproliferative activity against human UWB1289 cells with restoration of BRCA1 expression assessed as inhibition of cell proliferation incubated for 7 days by SRB assay; assay type: functional, cell-based; settings: UWB1289, 168 h
MDA-MB-436 [4] = assay: Antiproliferative activity against BRCA1-deficient human MDA-MB-436 cells assessed as inhibition of cell proliferation incubated for 7 days by CCK-8 assay; assay type: functional, cell-based; settings: MDA-MB-436, 168 h
CAPAN-1 [5] = assay: Antiproliferative activity against BRCA2-deficient human CAPAN-1 cells assessed as inhibition of cell proliferation incubated for 7 days by CellTiter-Glo assay; assay type: functional, cell-based; settings: CAPAN-1, 168 h
[6] = Cytotoxicity against human IMR-90 cells expressing wild type BRCA-1 assessed as inhibition of cell proliferation incubated for 7 days by SRB assay; assay type: toxicity, cell-based
[7] = Cytotoxicity against human WI-38 cells expressing wild type BRCA1 assessed as inhibition of cell proliferation incubated for 7 days by SRB assay; assay type: toxicity, cell-based
MDA-MB-436 [8] = assay: Induction of DNA double strand breaks in human MDA-MB-436 cells assessed as increase in gamma-H2AX level incubated for 48 hrs by western blot analysis; assay type: functional, cell-based; settings: dose 0.1-1 µM, DDE = dose-dependent effect
CAPAN-1 [9] = assay: Induction of DNA double strand breaks in human CAPAN-1 cells assessed as increase in gamma-H2AX level incubated for 48 hrs by western blot analysis; assay type: functional, cell-based; settings: dose 0.1-1 µM, DDE = dose-dependent effect
CAPAN-1 [10] = assay: Induction of DNA double strand breaks in human CAPAN-1 cells assessed as increase in gamma-H2AX level at 10 uM incubated for 48 hrs by immunofluorescence-based laser confocal microscopy; assay type: functional, cell-based
MDA-MB-436 [11] = assay: Induction of DNA double strand breaks in human MDA-MB-436 cells assessed as increase in Chk1 phosphorylation at Ser345 residue incubated for 48 hrs by western blot analysis; assay type: functional, cell-based; settings: dose 0.1-1 µM
CAPAN-1 [12] = assay: Induction of DNA double strand breaks in human CAPAN-1 cells assessed as increase in Chk1 phosphorylation at Ser345 residue incubated for 48 hrs by western blot analysis; assay type: functional, cell-based; settings: dose 0.1-1 µM
CAPAN-1 [13] = assay: Induction of cell cycle arrest at G2/M phase in human CAPAN-1 cells incubated for 48 hrs by propidium iodide staining based flow cytometry; assay type: functional; settings: dose 1-10 µM, DDE = dose-dependent effect
CAPAN-1 [14] = assay: Induction of apoptosis in human CAPAN-1 cells assessed as early apoptotic cells at 1 uM incubated for 96 hrs by AnnexinV-FITC/PI staining based flow cytometry (reference value: 5.08%); assay type: functional
CAPAN-1 [15] = assay: Induction of apoptosis in human CAPAN-1 cells assessed as late apoptotic cells at 1 uM incubated for 96 hrs by AnnexinV-FITC/PI staining based flow cytometry (reference value: 8.99%); assay type: functional
CAPAN-1 [16] = assay: Induction of apoptosis in human CAPAN-1 cells assessed as early apoptotic cells at 5 uM incubated for 96 hrs by AnnexinV-FITC/PI staining based flow cytometry (reference value: 5.08%); assay type: functional
CAPAN-1 [17] = assay: Induction of apoptosis in human CAPAN-1 cells assessed as late apoptotic cells at 5 uM incubated for 96 hrs by AnnexinV-FITC/PI staining based flow cytometry (reference value: 8.99%); assay type: functional
CAPAN-1 [18] = assay: Induction of apoptosis in human CAPAN-1 cells assessed as early apoptotic cells at 10 uM incubated for 96 hrs by AnnexinV-FITC/PI staining based flow cytometry (reference value: 5.08%); assay type: functional
CAPAN-1 [19] = assay: Induction of apoptosis in human CAPAN-1 cells assessed as late apoptotic cells at 10 uM incubated for 96 hrs by AnnexinV-FITC/PI staining based flow cytometry (reference value: 8.99%); assay type: functional

Sequence of Poly [ADP-ribose] polymerase 1 (P09874 whole entry): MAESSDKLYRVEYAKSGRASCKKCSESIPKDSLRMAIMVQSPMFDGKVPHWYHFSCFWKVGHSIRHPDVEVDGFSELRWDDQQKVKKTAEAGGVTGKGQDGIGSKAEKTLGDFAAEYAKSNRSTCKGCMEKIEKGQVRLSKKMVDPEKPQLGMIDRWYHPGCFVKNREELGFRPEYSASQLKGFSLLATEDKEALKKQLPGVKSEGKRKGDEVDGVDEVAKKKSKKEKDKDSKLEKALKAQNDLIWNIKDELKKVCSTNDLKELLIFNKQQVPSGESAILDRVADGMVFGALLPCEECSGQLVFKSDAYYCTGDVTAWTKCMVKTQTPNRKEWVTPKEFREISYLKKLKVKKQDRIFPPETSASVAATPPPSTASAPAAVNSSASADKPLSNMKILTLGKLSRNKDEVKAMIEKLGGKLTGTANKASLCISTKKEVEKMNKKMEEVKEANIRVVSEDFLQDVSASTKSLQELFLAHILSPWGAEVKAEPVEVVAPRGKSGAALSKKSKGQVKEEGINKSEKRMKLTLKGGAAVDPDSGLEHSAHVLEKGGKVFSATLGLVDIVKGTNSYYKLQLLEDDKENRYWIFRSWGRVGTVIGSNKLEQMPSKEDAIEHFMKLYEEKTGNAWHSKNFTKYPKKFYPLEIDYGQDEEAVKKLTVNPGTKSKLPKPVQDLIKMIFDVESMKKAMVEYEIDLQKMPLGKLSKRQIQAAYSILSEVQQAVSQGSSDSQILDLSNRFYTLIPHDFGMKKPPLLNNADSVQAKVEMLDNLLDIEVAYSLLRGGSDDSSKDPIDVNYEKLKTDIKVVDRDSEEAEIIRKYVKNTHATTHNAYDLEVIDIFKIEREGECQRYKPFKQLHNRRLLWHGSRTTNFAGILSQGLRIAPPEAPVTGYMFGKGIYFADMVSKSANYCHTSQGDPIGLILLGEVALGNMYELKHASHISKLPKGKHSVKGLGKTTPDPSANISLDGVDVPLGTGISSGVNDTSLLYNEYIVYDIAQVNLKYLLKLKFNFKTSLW

Structure (SMILES): C=C1C(=O)OC2C[C@@]3(C)CCC=C(COC(=O)CCN(C)C(=O)c4cc(Cc5n[nH]c(=O)c6ccccc56)ccc4F)C3=CC12 (some centres not stated)
IC50 [1]: 2.18 nM
IC50 [2]: 900 nM
IC50 [3]: 1210 nM
IC50 (MDA-MB-436 [4]): 2190 nM
IC50 (CAPAN-1 [5]): 1280 nM

Structure (SMILES): C=C1C(=O)OC2C[C@@]3(C)CCC=C(COC(=O)CC4CCCN(C(=O)c5cc(Cc6n[nH]c(=O)c7ccccc67)ccc5F)C4)C3=CC12 (some centres not stated)
IC50 [1]: 65.2 nM

Structure (SMILES): C=C1C(=O)OC2C[C@@]3(C)CCC=C(COC(=O)CCCC4CCN(C(=O)c5cc(Cc6n[nH]c(=O)c7ccccc67)ccc5F)CC4)C3=CC12 (some centres not stated)
IC50 [1]: 129 nM

Structure (SMILES): C=C1C(=O)OC2C[C@@]3(C)CCC=C(COC(=O)C4CN(C(=O)c5cc(Cc6n[nH]c(=O)c7ccccc67)ccc5F)C4)C3=CC12 (some centres not stated)
IC50 [1]: 279 nM

Structure (SMILES): C=C1C(=O)OC2C[C@@]3(C)CCC=C(COC(=O)CCC4CCN(C(=O)c5cc(Cc6n[nH]c(=O)c7ccccc67)ccc5F)CC4)C3=CC12 (some centres not stated)
IC50 [1]: 79.2 nM

Structure (SMILES): C[C@H]1CCC[C@]2(C)CC3OC(=O)C(CN4CCN(C(=O)c5cc(Cc6n[nH]c(=O)c7ccccc67)ccc5F)CC4)C3C=C12 (some centres not stated)
IC50 [1]: 136 nM

Structure (SMILES): C=C1C(=O)OC2C[C@@]3(C)CCC=C(COC(=O)COCCOCCNC(=O)c4cc(Cc5n[nH]c(=O)c6ccccc56)ccc4F)C3=CC12 (some centres not stated)
IC50 [1]: 38.6 nM

Structure (SMILES): C=C1C(=O)OC2C[C@@]3(C)CCC=C(COC(=O)CCNC(=O)c4cc(Cc5n[nH]c(=O)c6ccccc56)ccc4F)C3=CC12 (some centres not stated)
IC50 [1]: 134 nM

Structure (SMILES): C=C1C(=O)O[C@@H]2C[C@@]3(C)CCC[C@H](C)C3=C[C@H]12 [HELENINE]
IC50 [1]: > 10000 nM

Structure (SMILES): C=C1C(=O)OC2C[C@@]3(C)CCC=C(COC(=O)c4cc(Cc5n[nH]c(=O)c6ccccc56)ccc4F)C3=CC12 (some centres not stated)
IC50 [1]: 2600 nM

Structure (SMILES): O=C(c1cc(Cc2n[nH]c(=O)c3ccccc23)ccc1F)N1CCN(C(=O)C2CC2)CC1 [OLAPARIB]
IC50 [2]: 660 nM
IC50 [3]: 4650 nM
IC50 (MDA-MB-436 [4]): 100 nM
IC50 (CAPAN-1 [5]): 530 nM
Activity (MDA-MB-436 [8]): Dde
Activity (CAPAN-1 [9]): Dde
Activity (CAPAN-1 [10]): Active
Activity (CAPAN-1 [14]): 4.92%
Activity (CAPAN-1 [15]): 10.1%
Activity (CAPAN-1 [16]): 5.74%
Activity (CAPAN-1 [17]): 12.9%
Activity (CAPAN-1 [18]): 9.82%
Activity (CAPAN-1 [19]): 19%

Structure (SMILES): C=C1C(=O)OC2C[C@@]3(C)CCC=C(COC(=O)CC4CCN(C(=O)c5cc(Cc6n[nH]c(=O)c7ccccc67)ccc5F)CC4)C3=CC12 (some centres not stated)
IC50 [1]: 69.9 nM

Structure (SMILES): C=C1C(=O)OC2C[C@@]3(C)CCC=C(CN4CCN(C(=O)c5cc(Cc6n[nH]c(=O)c7ccccc67)ccc5F)CC4)C3=CC12 (some centres not stated)
IC50 [1]: 170 nM

More lines, main results first:

IC50 [1]: 43.9 nM
Structure (SMILES): C[C@H]1CCC[C@]2(C)CC3OC(=O)C(CN(C)CCC(=O)N4CCN(C(=O)c5cc(Cc6n[nH]c(=O)c7ccccc67)ccc5F)CC4)C3C=C12 (some centres not stated)

IC50 [1]: 43 nM
Structure (SMILES): C[C@H]1CCC[C@]2(C)CC3OC(=O)C(CN(C)CCCC(=O)N4CCN(C(=O)c5cc(Cc6n[nH]c(=O)c7ccccc67)ccc5F)CC4)C3C=C12 (some centres not stated)

IC50 [1]: 8.33 nM
IC50 (MDA-MB-436 [4]): 200 nM
Structure (SMILES): C[C@H]1CCC[C@]2(C)CC3OC(=O)C(CNCCCC(=O)N4CCN(C(=O)c5cc(Cc6n[nH]c(=O)c7ccccc67)ccc5F)CC4)C3C=C12 (some centres not stated)
IC50 [2]: 1120 nM
IC50 [3]: 2250 nM
IC50 (CAPAN-1 [5]): 990 nM

IC50 [1]: 19.7 nM
Structure (SMILES): C[C@H]1CCC[C@]2(C)CC3OC(=O)C(CNOCC(=O)N4CCN(C(=O)c5cc(Cc6n[nH]c(=O)c7ccccc67)ccc5F)CC4)C3C=C12 (some centres not stated)

IC50 [1]: 94.9 nM
Structure (SMILES): C[C@]12CCC=C(CO)C1=CC1C(C2)OC(=O)C1CN1CCN(C(=O)c2cc(Cc3n[nH]c(=O)c4ccccc34)ccc2F)CC1 (some centres not stated)

IC50 [1]: 25.5 nM
Structure (SMILES): C[C@H]1CCC[C@]2(C)CC3OC(=O)C(CNCC(=O)N4CCN(C(=O)c5cc(Cc6n[nH]c(=O)c7ccccc67)ccc5F)CC4)C3C=C12 (some centres not stated)

IC50 [1]: 15.5 nM
Structure (SMILES): C[C@H]1CCC[C@]2(C)CC3OC(=O)C(CNCCC(=O)N4CCN(C(=O)c5cc(Cc6n[nH]c(=O)c7ccccc67)ccc5F)CC4)C3C=C12 (some centres not stated)

IC50 [1]: 422 nM
Structure (SMILES): C[C@]12CCC=C(CO)C1=CC1C(C2)OC(=O)C1CNCCCCCCCC(=O)N1CCN(C(=O)c2cc(Cc3n[nH]c(=O)c4ccccc34)ccc2F)CC1 (some centres not stated)

IC50 [1]: 73.4 nM
Structure (SMILES): C[C@H]1CCC[C@]2(C)CC3OC(=O)C(CNCCOCCOCCOCC(=O)N4CCN(C(=O)c5cc(Cc6n[nH]c(=O)c7ccccc67)ccc5F)CC4)C3C=C12 (some centres not stated)

IC50 [1]: 5.91 nM
IC50 (MDA-MB-436 [4]): 190 nM
Structure (SMILES): C[C@]12CCC=C(CO)C1=CC1C(C2)OC(=O)C1CNCCOCCOCC(=O)N1CCN(C(=O)c2cc(Cc3n[nH]c(=O)c4ccccc34)ccc2F)CC1 (some centres not stated)
IC50 [2]: 410 nM
IC50 [3]: 2570 nM
IC50 (CAPAN-1 [5]): 750 nM
IC50 at 7 days [6]: 10100 nM
IC50 at 7 days [7]: 12000 nM
Activity (MDA-MB-436 [8]): Dde
Activity (CAPAN-1 [9]): Dde
Activity (CAPAN-1 [10]): Active
Activity (MDA-MB-436 [11]): Active
Activity (CAPAN-1 [12]): Active
Activity (CAPAN-1 [13]): Dde
Activity (CAPAN-1 [14]): 6.64%
Activity (CAPAN-1 [15]): 12.6%
Activity (CAPAN-1 [16]): 9.68%
Activity (CAPAN-1 [17]): 16.5%
Activity (CAPAN-1 [18]): 12.5%
Activity (CAPAN-1 [19]): 33.5%

IC50 [1]: 88.4 nM
Structure (SMILES): C[C@]12CCC=C(C=O)C1=CC1C(C2)OC(=O)C1CNCCOCCOCC(=O)N1CCN(C(=O)c2cc(Cc3n[nH]c(=O)c4ccccc34)ccc2F)CC1 (some centres not stated)

IC50 [1]: 2.99 nM
IC50 (MDA-MB-436 [4]): 190 nM
Structure (SMILES): C[C@H]1CCC[C@]2(C)CC3OC(=O)C(CNCCCCCCCC(=O)N4CCN(C(=O)c5cc(Cc6n[nH]c(=O)c7ccccc67)ccc5F)CC4)C3C=C12 (some centres not stated)
IC50 [2]: 270 nM
IC50 [3]: 1430 nM
IC50 (CAPAN-1 [5]): 870 nM
IC50 at 7 days [6]: 11700 nM
IC50 at 7 days [7]: 11800 nM
Activity (MDA-MB-436 [8]): Dde
Activity (CAPAN-1 [9]): Dde
Activity (CAPAN-1 [10]): Active
Activity (MDA-MB-436 [11]): Active
Activity (CAPAN-1 [12]): Active
Activity (CAPAN-1 [13]): Dde
Activity (CAPAN-1 [14]): 5.52%
Activity (CAPAN-1 [15]): 14.4%
Activity (CAPAN-1 [16]): 7.21%
Activity (CAPAN-1 [17]): 13.9%
Activity (CAPAN-1 [18]): 35.4%
Activity (CAPAN-1 [19]): 58.2%

IC50 [1]: 20.3 nM
Structure (SMILES): C[C@H]1CCC[C@]2(C)CC3OC(=O)C(CN(C)CC(=O)N4CCN(C(=O)c5cc(Cc6n[nH]c(=O)c7ccccc67)ccc5F)CC4)C3C=C12 (some centres not stated)
